Like-named read-outs stand apart in the source and are kept apart here. No end group written: not given here.
How the values were obtained:
[1] = tested on: subjects with BMIs of 30 to 40 kg/m^2; test: Dose-escalation clinical trial, feeling of fullness assessed by VAS after lunch; type: in vivo, human
Protocol: An exemplary clinical trial was performed as a dose-escalation design trial. Approximately twelve evaluable subjects (n˜12) with BMIs of 30 to 40 kg/m^2 received a single dose of placebo followed by study drug (PYY(3-36) also known as GT-001) applied directly to the surface of the lingual mucosa with a disposable pipette followed by a one-day washout. A total of seven (7) doses was escalated to a dose of 2.5 mg/ml.
The dose can be prepared, for example, from a stock solution of 2.5 mg/ml PYY(3-36).
Subjects who complete all screening procedures and meet all inclusion and exclusion criteria described within the protocol and found to be eligible for study enrollment checked into the Study Unit (i.e., the study facility). The morning of the study, participants fasted prior to arriving at the SU. Participants fasted for at least 12 hours prior to Day 1 of the study. Participants were permitted to only drink water prior to arrival to SU and were able to brush their teeth. The following assessments and measurements were taken: • (1) Inspection of the lingual mucosa. • (2) Updating medical and medication history prior to placebo application. • (3) Assessing health status. If participant has either rhinitis or gastrointestinal distress, the participant will be discontinued for that day. • (4) Measuring body weight and BMI. • (5) Measuring vital signs (BP, HR, and body temperature). BP and HR were measured twice in the sitting position and twice in the standing position. If BP was high at baseline sitting (>160 systolic), BP was re-checked after participant was sitting for 5-10 min. Body temperature was measured once. • (6) Performing urine drug screen, urine cotinine test, alcohol breath test, and urine pregnancy test. • (7) Subjects provided a 325-400 calorie breakfast and calorie intake was recorded. • (8) Water was provided “ad-libitum” and volume recorded. • (9) Four (4) hours post breakfast, the VAS for Appetite and Satiety was performed. • (10) Inserting a cannula to obtain blood samples, obtaining a 5 ml blood sample, and screening for anti-GT-001 antibodies. • (11) Obtaining a fasting PK blood sample #1 (5 ml) 15 minutes prior to placebo. • (12) Performing a water mouthwash prior to dosing with GT-001. The mouthwash can be a rinse with 20 ml of water. • (13) Giving one milliliter (1 ml) of placebo (formulation without GT-001) to the participant to the tongue via pipette 5 minutes before lunch. • (14) The solution remained on the tongue for 1 minute followed by asking participants to swish and then swallow. • (15) Completing a VAS for like-lines (VAS completed by subjects). • (16) Collecting PK blood samples after each of seven doses at ±1 minute at 5, 10, 15, 30, and ±5 minutes at 60, 120, and 240 minutes post dose. • (17) Isolating subjects from other subjects during lunch. • (18) Provided a “ad-libitum” lunch (composed of a casserole, nutrient drink and two (2) cookies) and recording calorie intake. • (19) Having subjects complete VAS questionnaire for sweetness, sourness, bitterness, saltiness, umami, and fat taste 20 minutes after completing the meals. • (20) Recording VAS for appetite and satiety every 30 minutes for 2 hours after completing the meal. • (21) Discharging subjects. Subjects ate “at-libitum” until the 12-hour fasting period preceding the next study visit. • (22) During the SU visit, subjects were restricted from ingesting gum, candy, tobacco, carbonated drinks, and from performing exercise. During the meal, subjects were not exposed to food cues (visual, odor, or hearing) and they should eat in isolation.
Days 2, 4, 6, 8, 10, 12 and 14 treatment days are the same as day 1.
The following exemplary VAS Assessment was given to subjects to assess their feeling of fullness before and after receiving PYY(3-36) or placebo and before or after eating at various doses described herein. […]

[2] = PYY concentration in plasma after lingual administration followed by lunch; type: in vivo, human; conditions: 0.25 mg/ml and 2.5 mg/ml, each followed by lunch; up to 4 hours after administration
Protocol: As shown, administering the placebo followed by food consumption induces the known and expected endogenous production of PYY resulting from food consumption peaking at approximately 20 pg/ml above pre-dose levels at 1-2 hours post-administration.
Subjects who complete all screening procedures and meet all inclusion and exclusion criteria described within the protocol and found to be eligible for study enrollment checked into the Study Unit (i.e., the study facility). The morning of the study, participants fasted prior to arriving at the SU. Participants fasted for at least 12 hours prior to Day 1 of the study. […] BP and HR were measured twice in the sitting position and twice in the standing position. […] Body temperature was measured once. • (6) Performing urine drug screen, urine cotinine test, alcohol breath test, and urine pregnancy test. • (7) Subjects provided a 325-400 calorie breakfast and calorie intake was recorded. • (8) Water was provided “ad-libitum” and volume recorded. • (9) Four (4) hours post breakfast, the VAS for Appetite and Satiety was performed. • (10) Inserting a cannula to obtain blood samples, obtaining a 5 ml blood sample, and screening for anti-GT-001 antibodies. • (11) Obtaining a fasting PK blood sample #1 (5 ml) 15 minutes prior to placebo. • (12) Performing a water mouthwash prior to dosing with GT-001. […]

mice = conditions: cited from earlier work; for effect on 1-hour food intake: augmentation of salivary peptide; for reduction of caloric intake as compared to controls / caloric intake: mice; for reduction of caloric intake as compared to controls: salivary augmentation; for caloric intake: vehicle 4.10±0.04 kcal
rodents = conditions: augmentation of salivary PYY(3-36); cited from earlier work

Substance	feeling of fullness, VAS score (FIG. 1) ([1]; dose 25 ng applied to the tongue, 120 minutes post-lunch, 12 subjects, significantly above placebo level)	feeling of fullness, VAS score (FIG. 2) ([1]; dose 25 ng, up to 60 minutes post-lunch)	feeling of fullness, VAS score (FIG. 1) ([1]; dose 2.5 μg applied to the tongue, post-lunch, 12 subjects)	feeling of fullness, VAS score (FIG. 2) ([1]; dose 25 μg, maintained out to 120 minutes post-lunch)	feeling of fullness, VAS scale (FIG. 1) ([1]; dose 250 μg applied to the tongue, post-lunch, 12 subjects)	feeling of fullness, VAS score (FIG. 2) ([1]; dose 250 μg, maintained out to 120 minutes post-lunch)	level of PYY in plasma versus placebo/meal combination (FIG. 3) [2]	effect on 1-hour food intake (mice)	reduction of caloric intake as compared to controls (mice; 0.3 μg/100 g) [%]	caloric intake (mice; 0.3 μg/100 g, p=0.01) [kcal]	reduction of caloric intake as compared to controls (mice; 3 μg/100 g) [%]	caloric intake (mice; 3 μg/100 g, p=0.008) [kcal]	reduction of caloric intake as compared to controls (mice; 10 μg/100 g) [%]	caloric intake (mice; 10 μg/100 g, p=1.81E-06) [kcal]	taste aversion (rodents)
PYY(3-36)	7	about 8	increases	8	about 8	8	does not raise the level of PYY in plasma above levels induced by the placebo/meal combination	decrease	16	3.44 ± 0.06	26	3.01 ± 0.06	42	2.36 ± 0.05	does not cause taste aversion
amylin (KCNTATCATQRLANFLVHSSNNFGAILSSTNVGSNTY; not fully specified (C-terminus, bridges); cysteine pairing not given here; UniProt P10997 34-70, looked up) [peptide tested by salivary augmentation for comparison, reference compound]	–	–	–	–	–	–	–	no effect	–	–	–	–	–	–	–
neuropeptide Y [reference compound]	–	–	–	–	–	–	–	no effect	–	–	–	–	–	–	–

Source: patent US11911445B2, “Peptide YY pharmaceutical formulations, compositions, and methods” (Gila Therapeutics, Inc., priority 2018, dated 2024)
